From the supplement of paper PMC11208160

experiment: recombinant barcode read abundance after kanamycin selection (control-corrected) (log10(CPM+1)); higher = more efficient recombination; sequences stand for … in AGTGCAGAGAAAATCGGCCAGTTTTCTCTGCCTGCAGTCCGCATGCCGT…AGATTTATGCAGCGGACTGCCTTTCTCCCAAAGTGATAAACCGGACAGTATCATGGACCGGTTTTCCCGGTAATCCGTATTTGCAAGGTTGGTTTCACT; site = the 11-nt target
Method in brief: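 Targets were screened in pooled form in E. coli against IS621 bridge RNA target-binding loops. Recombination efficiency is based on barcode counts at recombinant junctions in counts per million, averaged and corrected for the control. Numbers are shown as log10(CPM+1), with duplicate plates on chloramphenicol/ampicillin LB agar (control) or chloramphenicol/ampicillin/kanamycin with 0.1 mM IPTG.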
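Further: IS621 recombinase and bridge RNA in Escherichia coli cells.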

Row | Sequence | recombinant barcode read abundance (log10)
1 | CGAAGATCTTGGGTTCTAACCTGTTGCCT (site CAAAGATCTAG) | 0.142
2 | CGAAGATCTTGGGTTCTAACCTGTTGCCT (site CCAAGATCTAG) | 0
3 | CGAAGATCTTGGGTTCTAACCTGTTGCCT (site CGAAGATCTAG) | 0.273
4 | CGAAGATCTTGGGTTCTAACCTGTTGCCT (site CTAAGATCTAG) | 0.069
5 | CGACACTCTTGGGTTCTAACCTGTTGCCT (site CAACACTCTAG) | 0.107
6 | CGACACTCTTGGGTTCTAACCTGTTGCCT (site CCACACTCTAG) | 0.164
7 | CGACACTCTTGGGTTCTAACCTGTTGCCT (site CGACACTCTAG) | 0.251
8 | CGACACTCTTGGGTTCTAACCTGTTGCCT (site CTACACTCTAG) | 0.0214
9 | CGACAGTCTTGGGTTCTAACCTGTTGCCT (site CGACAGTCTAG) | 0.687
10 | CGACAGTCTTGGGTTCTAACCTGTTGCCT (site TAGATTCCTTT) | 0.201
11 | CGACATACTTGGGTTCTAACCTGTTGCGT (site CGACATACTAC) | 0.593
12 | CGACATACTTGGGTTCTAACCTGTTGCGT (site GGACATGCTAC) | 0.0511
13 | CGACCCTCTTGGGTTCTAACCTGTTGCTT (site ACACCCTCTAA) | 0.178
14 | CGACCCTCTTGGGTTCTAACCTGTTGCTT (site CGACCCTCTAA) | 1.39
15 | CGACCTACTTGGGTTCTAACCTGTTGCTA (site CGACCTACTTA) | 0.088
16 | CGACCTACTTGGGTTCTAACCTGTTGCTA (site GTACCTACTTA) | 0.17
17 | CGACCTGCTTGGGTTCTAACCTGTTGCCT (site CGACCTGCTAG) | 0.246
18 | CGACCTGCTTGGGTTCTAACCTGTTGCCT (site CGCCCTACTAG) | 0.249
19 | CGACGAACTTGGGTTCTAACCTGTTGCCT (site CGACGAACTAG) | 0.201
20 | CGACGAACTTGGGTTCTAACCTGTTGCCT (site GTCAATCCTCC) | 0.0212
21 | CGACGTCCTTGGGTTCTAACCTGTTGCGG (site CGACGTCCTCC) | 1.74
22 | CGACGTCCTTGGGTTCTAACCTGTTGCGG (site TGAAGTCCTCC) | 0.00826

Row | Sequence | recombinant barcode read abundance (log10)
23 | CGACTTACTTGGGTTCTAACCTGTTGCAT (site ACGGGCTCTGA) | 0.103
24 | CGACTTACTTGGGTTCTAACCTGTTGCAT (site CGACTTACTAT) | 0.0348
25 | CGAGCTCCTTGGGTTCTAACCTGTTGCCT (site CGAGCTCCTAA) | 0.763
26 | CGAGCTCCTTGGGTTCTAACCTGTTGCCT (site CGAGCTCCTAC) | 0.582
27 | CGAGCTCCTTGGGTTCTAACCTGTTGCCT (site CGAGCTCCTAG) | 1.24
28 | CGAGCTCCTTGGGTTCTAACCTGTTGCCT (site CGAGCTCCTAT) | 0.157
29 | CGAGGCCCTTGGGTTCTAACCTGTTGCTT (site CGAGGCCCTAA) | 1.93
30 | CGAGGCCCTTGGGTTCTAACCTGTTGCTT (site GTCCTATCTGT) | 0.0488
31 | CGAGTGACTTGGGTTCTAACCTGTTGCCA (site CGAGTGACTTG) | 0.906
32 | CGAGTGACTTGGGTTCTAACCTGTTGCCA (site TTCCGTCCTAA) | 0.382
33 | CGATCGACTTGGGTTCTAACCTGTTGCAG (site CGACCGACTCT) | 0.401
34 | CGATCGACTTGGGTTCTAACCTGTTGCAG (site CGATCGACTCT) | 0.809
35 | CGATCGCCTTGGGTTCTAACCTGTTGCCT (site CGATCGCCTAG) | 0.339
36 | CGATCGCCTTGGGTTCTAACCTGTTGCCT (site GGACCGCCTAG) | 0.0952
37 | CGATGTGCTTGGGTTCTAACCTGTTGCCT (site CGATGTCCTAG) | 0.334
38 | CGATGTGCTTGGGTTCTAACCTGTTGCCT (site CGATGTGCTAG) | 0.535
39 | CGATTTCCTTGGGTTCTAACCTGTTGCAT (site CGATTTCCTAG) | 0
40 | CGATTTCCTTGGGTTCTAACCTGTTGCAT (site CGATTTCCTAT) | 0.0511
41 | CGCCATCCTTGGGTTCTAACCTGTTGCAT (site CGCCATCCTAT) | 0.134
42 | CGCCATCCTTGGGTTCTAACCTGTTGCAT (site CGCCCTCCTAT) | 0.227
43 | CGCCATCCTTGGGTTCTAACCTGTTGCAT (site CGCCGTCCTAT) | 0.0349
44 | CGCCATCCTTGGGTTCTAACCTGTTGCAT (site CGCCTTCCTAT) | 0.569

Row | Sequence | recombinant barcode read abundance (log10)
45 | CGCCCACCTTGGGTTCTAACCTGTTGCCT (site CGCCCACCTAG) | 0.0145
46 | CGCCCACCTTGGGTTCTAACCTGTTGCCT (site CTCCAACCTAG) | 0
47 | CGCCCTACTTGGGTTCTAACCTGTTGCCT (site CGACCTGCTAG) | 0.236
48 | CGCCCTACTTGGGTTCTAACCTGTTGCCT (site CGCCCTACTAG) | 0.239
49 | CGCCGTCCTTGGGTTCTAACCTGTTGCAT (site CGCCATCCTAT) | 0.0426
50 | CGCCGTCCTTGGGTTCTAACCTGTTGCAT (site CGCCCTCCTAT) | 0.103
51 | CGCCGTCCTTGGGTTCTAACCTGTTGCAT (site CGCCGTCCTAT) | 0.279
52 | CGCCGTCCTTGGGTTCTAACCTGTTGCAT (site CGCCTTCCTAT) | 0.099
53 | CGCCTAGCTTGGGTTCTAACCTGTTGCCT (site CGCCTAGCTAG) | 0.206
54 | CGCCTAGCTTGGGTTCTAACCTGTTGCCT (site CTCCTACCTAG) | 0.0925
55 | CGCCTCCCTTGGGTTCTAACCTGTTGCCT (site CGCCTCACTAG) | 0.179
56 | CGCCTCCCTTGGGTTCTAACCTGTTGCCT (site CGCCTCCCTAG) | 0.446
57 | CGCCTCCCTTGGGTTCTAACCTGTTGCCT (site CGCCTCGCTAG) | 0
58 | CGCCTCCCTTGGGTTCTAACCTGTTGCCT (site CGCCTCTCTAG) | 0.0882
59 | CGCCTCGCTTGGGTTCTAACCTGTTGCCT (site CGCCTCACTAG) | 0.07
60 | CGCCTCGCTTGGGTTCTAACCTGTTGCCT (site CGCCTCCCTAG) | 0.16
61 | CGCCTCGCTTGGGTTCTAACCTGTTGCCT (site CGCCTCGCTAG) | 0.0366
62 | CGCCTCGCTTGGGTTCTAACCTGTTGCCT (site CGCCTCTCTAG) | 0.259
63 | CGCGATCCTTGGGTTCTAACCTGTTGCCT (site CGCGATCCTAG) | 0.431
64 | CGCGATCCTTGGGTTCTAACCTGTTGCCT (site CGCGCTCCTAG) | 0.0201
65 | CGCGATCCTTGGGTTCTAACCTGTTGCCT (site CGCGGTCCTAG) | 0.468
66 | CGCGATCCTTGGGTTCTAACCTGTTGCCT (site CGCGTTCCTAG) | 0.265

Row | Sequence | recombinant barcode read abundance (log10)
67 | CGCGCAACTTGGGTTCTAACCTGTTGCCT (site CGCGCAACTAG) | 0.0454
68 | CGCGCAACTTGGGTTCTAACCTGTTGCCT (site CGCGTAACTAG) | 0.185
69 | CGCGGGTCTTGGGTTCTAACCTGTTGCTT (site CGCGAATCTAA) | 0.236
70 | CGCGGGTCTTGGGTTCTAACCTGTTGCTT (site CGCGGGTCTAA) | 0.88
71 | CGCGTTCCTTGGGTTCTAACCTGTTGCCT (site CGCGATCCTAG) | 0.262
72 | CGCGTTCCTTGGGTTCTAACCTGTTGCCT (site CGCGCTCCTAG) | 0.608
73 | CGCGTTCCTTGGGTTCTAACCTGTTGCCT (site CGCGGTCCTAG) | 0.542
74 | CGCGTTCCTTGGGTTCTAACCTGTTGCCT (site CGCGTTCCTAG) | 0.197
75 | CGCTGACCTTGGGTTCTAACCTGTTGCTT (site CGCTGACCTAA) | 0.0663
76 | CGCTGACCTTGGGTTCTAACCTGTTGCTT (site CGCTGCCCTAA) | 0.208
77 | CGCTGACCTTGGGTTCTAACCTGTTGCTT (site CGCTGGCCTAA) | 0.116
78 | CGCTGACCTTGGGTTCTAACCTGTTGCTT (site CGCTGTCCTAA) | 0.231
79 | CGCTGGTCTTGGGTTCTAACCTGTTGCCT (site CGCTAGTCTAG) | 0.309
80 | CGCTGGTCTTGGGTTCTAACCTGTTGCCT (site CGCTCGTCTAG) | 0.145
81 | CGCTGGTCTTGGGTTCTAACCTGTTGCCT (site CGCTGGTCTAG) | 0.0358
82 | CGCTGGTCTTGGGTTCTAACCTGTTGCCT (site CGCTTGTCTAG) | 0.111
83 | CGCTTGTCTTGGGTTCTAACCTGTTGCTT (site CACTTGACTAA) | 0.0517
84 | CGCTTGTCTTGGGTTCTAACCTGTTGCTT (site CGCTTGTCTAA) | 0.0711
85 | CGGAACTCTTGGGTTCTAACCTGTTGCCT (site AGGAACTCTAG) | 0.274
86 | CGGAACTCTTGGGTTCTAACCTGTTGCCT (site CGGAACTCTAG) | 1.85
